{
  "source": "patent US4610989A",
  "about": "“Analgesic composition containing a mixture of 6-chloro-α-methyl-carbazole-2-acetic acid plus an opiate as the active agent” (priority 1985, dated 1986)",
  "tested_on": "phenylquinone induced writhing",
  "type": "in vivo, male CF-1 mice",
  "details": "for ED50 (95% Conf. Limits): p.o.; for ED50 (95% Conf. Limits) / Oral ED50 (95% Confidence Limits) / Oral Ed50: given alone; for Oral ED50 (95% Confidence Limits): Table II; for % Inhibition / No. Writhing Episodes: alone",
  "description": "The phenylquinone was dissolved in 5% ethyl alcohol and distilled water, gently heated to 37° C. and kept in a brown stoppered bottle to prevent deterioration. The test compounds were administered orally, in rapid succession, in distilled water 15 minutes prior to the phenylquinone.\nThe means and standard deviations computed during this analysis were then analyzed by \"parallel line bioassay\" that compared the opiate alkaloid alone in graded doses against, in turn, each combination of a range of opiate alkaloid doses plus a constant dose of carbazole compound. […] The opiate alkaloid dose scale here was always logarithmic.\nThe sequence of treatments in this study was not random. Rather, the ED50 for opiate alkaloid alone was determined. After this, combination experiments were conducted in which the carbazole racemic 6-chloro-α-methyl-carbazole-2-acetic acid, was administered at a constant dose and the ED50 of opiate alkaloid was redetermined in the presence of racemic 6-chloro-α-methyl-carbazole-2-acetic acid.\nInhibition of phenylquinone induced writhing by oxycodone potentiated by 6-chloro-α-methyl carbazole-2-acetic acid was determined by the procedure described hereinabove with one change. […] This transformation consisted of the [(square root of the number of writhes)+(square root of the number of writhes+1)] and is commonly employed with data that are distributed in a Poisson distribution.\nInhibition of phenylquinone induced writhing by morphine potentiated by 6-chloro-α-methyl-carbazole-2-acetic acid was determined by the procedure described hereinabove with one further change. […] This analysis was carried out on the set of values representing the percent of inhibition of writhing observed at each dose, as defined above, in any given assay.",
  "key": {"[1]": {"details": "Table I, regression analysis and Fieller's Theorem"}, "[2]": {"details": "Table III, square-root transformed writhes"}, "[3]": {"details": "Table V, Litchfield and Wilcoxon"}},
  "note": "Several values for one entry are separate records, joined by “and”; a condition that tells them apart may be missing. Identical values can stand only once. Like-named read-outs stand apart in the source and are kept apart here.",
  "data": [
    {"smiles": "CC(C(=O)O)c1ccc2c(c1)[nH]c1ccc(Cl)cc12", "note": "(racemic) [Compound A, 6-chloro-α-methyl-carbazole-2-acetic acid]", "values": [
      {"measurement": "ED50 (95% Conf. Limits)", "setting": "[1]", "value": "48.8 (25.7-72.0) mg/kg"},
      {"measurement": "Oral ED50 (95% Confidence Limits)", "value": "48.8 (25.7-72.0)"},
      {"measurement": "ED50 (95% Conf. Limits)", "setting": "[2]", "value": "41.9 (33.5-50.0) mg/kg"},
      {"measurement": "Oral Ed50", "setting": "Table IV", "value": "41.9(33.5-50.0)"},
      {"measurement": "ED50 (95% Conf. Limits)", "setting": "[3]", "value": "54(27-108) mg/kg"},
      {"measurement": "Oral Ed50", "setting": "Table VI", "value": "54(27-108)"},
      {"measurement": "% Inhibition", "setting": "oral dose 25", "value": "17% and 18% and 29%"},
      {"measurement": "No. Writhing Episodes", "setting": "oral dose 25", "value": "91 and 103 and 86"},
      {"measurement": "% Inhibition", "setting": "oral dose 50", "value": "58% and 48% and 51%"},
      {"measurement": "No. Writhing Episodes", "setting": "oral dose 50", "value": "47 and 66 and 59"},
      {"measurement": "% Inhibition", "setting": "oral dose 100", "value": "87% and 73% and 74%"},
      {"measurement": "% Inhibition", "setting": "oral dose 200", "value": "96% and 90% and 91%"}
    ]},
    {"smiles": "COc1ccc2c3c1O[C@H]1[C@@H](O)C=C[C@H]4[C@@H](C2)N(C)CC[C@@]341", "note": "[Codeine, codeine]", "values": [
      {"measurement": "ED50 (95% Conf. Limits)", "setting": "[1]", "value": "9.2 (6.6-11.9) mg/kg"},
      {"measurement": "Oral ED50 (95% Confidence Limits)", "value": "9.2 (6.6-11.9)"},
      {"measurement": "% Inhibition", "setting": "oral dose 5", "value": 19, "unit": "%"},
      {"measurement": "No. Writhing Episodes", "setting": "oral dose 5", "value": 92},
      {"measurement": "% Inhibition", "setting": "oral dose 10", "value": 62, "unit": "%"},
      {"measurement": "No. Writhing Episodes", "setting": "oral dose 10", "value": 43},
      {"measurement": "% Inhibition", "setting": "oral dose 20", "value": 86, "unit": "%"},
      {"measurement": "No. Writhing Episodes", "setting": "oral dose 20", "value": 16},
      {"measurement": "% Inhibition", "setting": "oral dose 40", "value": 98, "unit": "%"},
      {"measurement": "No. Writhing Episodes", "setting": "oral dose 40", "value": 2}
    ]},
    {"smiles": "CN1CC[C@]23c4c5ccc(O)c4O[C@H]2[C@@H](O)C=C[C@H]3[C@H]1C5", "note": "[Morphine, morphine]", "values": [
      {"measurement": "ED50 (95% Conf. Limits)", "setting": "[3]", "value": "2.5(1-4) mg/kg"},
      {"measurement": "Oral Ed50", "setting": "Table VI", "value": "2.5(1-4)"},
      {"measurement": "% Inhibition", "setting": "oral dose 1.25", "value": 21, "unit": "%"},
      {"measurement": "% Inhibition", "setting": "oral dose 2.5", "value": 47, "unit": "%"},
      {"measurement": "% Inhibition", "setting": "oral dose 5", "value": 83, "unit": "%"},
      {"measurement": "% Inhibition", "setting": "oral dose 10", "value": 95, "unit": "%"}
    ]},
    {"smiles": "COc1ccc2c3c1O[C@H]1C(=O)CC[C@@]4(O)[C@@H](C2)N(C)CC[C@]314", "note": "[Oxycodone, oxycodone]", "values": [
      {"measurement": "ED50 (95% Conf. Limits)", "setting": "[2]", "value": "0.25 (0.19-0.32) mg/kg"},
      {"measurement": "Oral Ed50", "setting": "Table IV", "value": "0.25(0.19-0.32)"},
      {"measurement": "% Inhibition", "setting": "oral dose 0.125", "value": 23, "unit": "%"},
      {"measurement": "No. Writhing Episodes", "setting": "oral dose 0.125", "value": 87},
      {"measurement": "% Inhibition", "setting": "oral dose 0.25", "value": 43, "unit": "%"},
      {"measurement": "No. Writhing Episodes", "setting": "oral dose 0.25", "value": 64},
      {"measurement": "% Inhibition", "setting": "oral dose 0.5", "value": 73, "unit": "%"},
      {"measurement": "No. Writhing Episodes", "setting": "oral dose 0.5", "value": 31},
      {"measurement": "% Inhibition", "setting": "oral dose 1", "value": 88, "unit": "%"},
      {"measurement": "No. Writhing Episodes", "setting": "oral dose 1", "value": 14},
      {"measurement": "% Inhibition", "setting": "oral dose 2", "value": 96, "unit": "%"},
      {"measurement": "No. Writhing Episodes", "setting": "oral dose 2", "value": 5}
    ]}
  ]
}
